Test results: US20250122465A1 (priority 2023, published 2025)
Like-named read-outs stand apart in the source and are kept apart here.

Legend:
STRAIN-1 = assay: Spore activation rate by phase-contrast microscopy, STRAIN-1; format: cell-based, Bacillus
[1] = tested on: Clostridium perfringens type A and G strains; details: combined with taurocholate; cited from earlier work
[2] = Example 1, individual amino acid at its Table 1 amount (0.08-500 g/L), 42° C., 1 hour
[3] = Example 1, individual amino acid at its Table 1 amount (0.08-500 g/L), 42° C., 24 hours

SMILES	Activation Rate (%) at 1 hr. (STRAIN-1; [2])	Activation Rate (%) at 24 hrs. (STRAIN-1; [3])	also measured
NCC(=O)O [Glycine]	0%	0%	–
OC[C@H]1O[C@@H](n2cnc3c(O)ncnc32)[C@H](O)[C@@H]1O [Inosine]	0%	0%	–
C[N+](C)(C)C[C@H](O)CC(=O)[O-] [L Carnitine]	–	–	Activation Rate (%) at 1 hr. (STRAIN-1): 0%; Activation Rate (%) at 24 hrs. (STRAIN-1): 0%
N=C(N)NCCC[C@H](N)C(=O)O [L-Arginine]	0%	0%	–
N[C@@H](CC(=O)O)C(=O)O [L-Aspartic acid]	0%	0%	–
N[C@@H](CS)C(=O)O [L-Cysteine]	0%	0%	–
N[C@@H](CSSC[C@H](N)C(=O)O)C(=O)O [L-Cystine]	0%	0%	–
N[C@@H](CCC(=O)O)C(=O)O [L-Glutamic acid]	0%	0%	–
NC(=O)CC[C@H](N)C(=O)O [L-Glutamine]	0%	0%	–
N[C@@H](Cc1c[nH]cn1)C(=O)O [L-Histidine]	0%	0%	–
CC[C@H](C)[C@H](N)C(=O)O [L-Isoleucine]	–	99 +/− 0%	Activation Rate (%) at 24 hrs. (STRAIN-1; Example 1, individual amino acid at its Table 1 amount (0.08-500 g/L), 42° C., 24 hours, listed as L-isoleucine): 99%
CC(C)C[C@H](N)C(=O)O [L-Leucine]	0%	0%	Activation Rate (%) at 24 hrs. (STRAIN-1): zero
NCCCC[C@H](N)C(=O)O [L-Lysine]	–	–	Activation Rate (%) at 1 hr. (STRAIN-1): 0%; Activation Rate (%) at 24 hrs. (STRAIN-1): 0%
CSCC[C@H](N)C(=O)O [L-Methionine]	0%	0%	–
N[C@@H](Cc1ccccc1)C(=O)O [L-Phenylalanine]	0%	0%	–
O=C(O)[C@@H]1CCCN1 [L-Proline]	0%	0%	–
N[C@@H](CO)C(=O)O [L-Serine]	0%	0%	–
C[C@@H](O)[C@H](N)C(=O)O [L-Threonine]	0%	0%	–
N[C@@H](Cc1c[nH]c2ccccc12)C(=O)O [L-Tryptophan]	0%	0%	–
N[C@@H](Cc1ccc(O)cc1)C(=O)O [L-Tyrosine]	0%	0%	–
CC(C)[C@H](N)C(=O)O [L-Valine]	0%	95 +/− 0%	Activation Rate (%) at 1 hr. (STRAIN-1): did not result in any activation; Activation Rate (%) at 24 hrs. (STRAIN-1; Example 1, individual amino acid at its Table 1 amount (0.08-500 g/L), 42° C., 24 hours, listed as L-valine): 95%
C[C@H](N)C(=O)O [L-alanine]	–	–	spore germination induced [1]: approximately 50%
